Drawing on patent US8518958B2, “Pyrido [2,3-D] pyrimidines and their use as kinase inhibitors” (Forma Therapeutics, Inc., priority 2006, dated 2013), this text covers IC50 for 23 molecules.

Read-outs that look alike come from different tables or passages of the source.

One test deals with B-Raf delta1-415 (Homo sapiens, UniProt P15056). The test can be described thus: B-Raf kinase inhibition (MAPH filter plate, 33P-ATP, MEK1 substrate). Conditions: read-out: Biochemical IC50 B-Raf. The text has this:
We characterized the in vitro inhibitory activity against protein kinases of compounds of the present invention by determining their IC50 values (see Table 2).
Kinase: B-Raf delta1-415 (e.g., Upstate Cat. No. 14-530)
Reaction Temperature: room temperature
Assay Plate: 96 well U bottom plate (Greiner, 650161)
MultiScreen-PH Plate: 96 well MAPH Filter Plates (Millipore, MAPHNOB50)
Filter Washing Solution: 0.75% H3PO4
Szintilation Liquid: Supermix Liquid Szintillator (PerkinElmer, 1200-439)
Negative Control (C−): 100 mM EDTA, no Inhibitor
Positive Control (C+): no Inhibitor
Reaction Buffer: 20 mM Mops, pH 7.0 • 10 mM MgCl2 • 0.4 mM MnCl2 • 100 mM NaCl • 1 mM DTT • 0.01% NP40
Final Assay Concentrations:
Kinase: Kinase conc. yielding 50% substrate turnover as determined in titration experiment.
Adenosine 5′-[γ-^33P]triphosphate: 12.5 μCi/ml (Amersham Biosciences, BF1000)
Pipetting Sequence: • 1) Add 10 μl 4-fold concentrated substrate in 3-fold concentrated reaction buffer to each well of assay plate • 2) Add 10 μl 4-fold concentrated inhibitor in 4% DMSO in H2O to each well except to C− and C+ wells (starting point: final inhibitor concentration 10 μM; IC50 determination based on dilution series) • 3) Add 10 μl 4% DMSO in H2O to C− and C+ wells • 4) Add 10 μl 500 mM EDTA in H2O to C− wells • 5) Add 10 μl 50 μCi/ml adenosine 5′-[γ-^33P]triphosphate in H2O+4-fold cold ATP to each well • 6) Add 10 μl 4-fold concentrated kinase in reaction buffer to each well • 7) Incubate 1 hr at room temperature • 8) Add 10 μl 50 mM EDTA in H2O to each well except to C− wells • 9) Prepare MAPH plates by adding 200 μl 0.75% H3PO4 to each well • 10) Exhaust 0.75% H3PO4 using Millipore vacuum station • 11) Add 60 μl 0.75% H3PO4 to each well of MAPH filter plate • 12) Transfer 30 μl sample per well from assay plate to corresponding well of MAPH filter plate • 13) Incubate 30 min at room temperature • 14) Wash each well of MAPH filter plates 3× with 200 μl 0.75% H3PO4 using Millipore vacuum station • 15) Add 20 μl scintillation liquid to each well of MAPH filter plate • 16) Seal MAPH filter plate • 17) Store MAPH filter plate 30 min in darkness • 18) Quantify radioactivity using scintillation counter (MicroBeta, Perkin-Elmer)

The next test deals with HT-29 tumor cells. The test can be described thus: Anti-proliferative activity, SRB assay. The format is cell-based, human. Conditions: 72 hours exposure, read-out: CELLULAR IC50 HT-29. The method, then: We observed the surprising finding that compounds of the invention were useful in inhibiting proliferation of HT-29 tumor cells (see Table 3).
3,000-15,000 cells/well were exposed to the test compounds at various concentrations appropriate to determine an IC50, for 72 hours, and cell proliferation was measured using the SRB assay according to Shekan et al (J Natl Cancer Inst (1990) 82, 1107-112) in order to estimate the IC50 values shown in Table 3. Briefly, cells were plated in 96 well dishes 24 hours prior to compound addition. The assay was terminated with the addition of cold TCA to a final concentration of 10% and the plates were incubated for one hour at 4° C. The plates were then washed 5 times with water and 100 μl of a Sulforhodamine B solution (4%) was added to each well. The plate was then incubated for 10 minutes at room temperature before removal of unbound dye by washing with 1% acetic acid. The bound dye was solubilized with 10 mM Trizma base and the absorbance read at OD570. Inhibitory activity of the compounds was calculated as % inhibition of cell proliferation compared to cells treated with the solvent (DMSO).

Chain of B-Raf delta1-415 (P15056 416-766): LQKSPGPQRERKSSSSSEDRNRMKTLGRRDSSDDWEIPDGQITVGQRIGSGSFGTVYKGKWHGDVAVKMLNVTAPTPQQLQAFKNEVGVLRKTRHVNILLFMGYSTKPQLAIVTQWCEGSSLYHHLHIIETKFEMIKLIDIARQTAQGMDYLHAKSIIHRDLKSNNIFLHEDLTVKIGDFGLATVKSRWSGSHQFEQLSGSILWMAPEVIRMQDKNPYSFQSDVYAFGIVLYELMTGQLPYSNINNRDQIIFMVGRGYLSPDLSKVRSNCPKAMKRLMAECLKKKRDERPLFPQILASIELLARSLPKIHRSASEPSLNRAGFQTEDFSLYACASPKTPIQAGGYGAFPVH

On to `O=c1c(-c2c(F)cccc2Cl)cc2cnc(Nc3ccc(N4CCOCC4)cc3)nc2n1OCC1CCOCC1` [Compound 143], for which the half-inhibitory concentration (IC50) at B-Raf delta1-415 was below 100 nM; in the test on HT-29 tumor cells (Homo sapiens, HT-29, 72 h), below 1000 nM.

Take `COn1c(=O)c(-c2c(C)cccc2C)cc2cnc(Nc3cc(C(=O)NCCN4CCCC4)n(C)c3)nc21` [Compound 87, 6-(2,6-Dimethylphenyl)-8-methoxy-2-(5-(2-pyrrolidinoethyl)aminocarbonyl-1-methyl-pyrrol-3-yl)-amino-pyrido[2,3-d]pyrimidin-7-one]: the IC50 on B-Raf delta1-415 was below 500 nM; with HT-29 tumor cells (Homo sapiens, HT-29, 72 h), below 1000 nM.

Regarding `COn1c(=O)c(-c2c(F)cccc2Cl)cc2cnc(Nc3ccc(N4CCNCC4)c(Cl)c3)nc21` [Compound 199, 6-(2-Chloro-6-fluorophenyl)-2-(3-chloro-4-piperazinophenyl)-amino-8-methoxy-pyrido[2,3-d]pyrimidin-7-one], the IC50 was below 100 nM on B-Raf delta1-415 and below 1000 nM in the test on HT-29 tumor cells (Homo sapiens, HT-29, 72 h).

Take `COCCN(C)C(=O)c1cc(Nc2ncc3cc(-c4c(Cl)cccc4Cl)c(=O)n(OCC4CC4)c3n2)cn1C` [Compound 176, 6-(2,6-Dichlorophenyl)-8-cyclopropylmethyloxy-2-(5-N-(2-methoxyethyl)-N-methyl-aminocarbonyl-1-methyl-pyrrol-3-yl)-amino-pyrido[2,3-d]pyrimidin-7-one]: the IC50 is below 500 nM on B-Raf delta1-415 and below 1000 nM in the test on HT-29 tumor cells (Homo sapiens, HT-29, 72 h).

For the molecule `COn1c(=O)c(-c2c(Cl)cccc2Cl)cc2cnc(Nc3ccc(SCCCO)cc3)nc21` [Compound 158, 6-(2,6-Dichlorophenyl)-2-(4-(3-hydroxypropyl)thiophenyl)-amino-8-methoxy-pyrido[2,3-d]pyrimidin-7-one], the IC50 on B-Raf delta1-415 is below 500 nM; in the test on HT-29 tumor cells (Homo sapiens, HT-29, 72 h), below 1000 nM.

As to `O=c1ccc2cnc(Nc3ccccc3)nc2n1OC1CCCC1` [Compound 225], the IC50 at B-Raf delta1-415 is above 1000 nM; with HT-29 tumor cells (Homo sapiens, HT-29, 72 h), below 10000 nM.

In the case of `COn1c(=O)c(-c2c(Cl)cccc2Cl)cc2cnc(Nc3ccc(N4CCOCC4)cc3)nc21` [Compound 98, 6-(2,6-Dichlorophenyl)-8-methoxy-2-(4-morpholinophenyl)-amino-pyrido[2,3-d]pyrimidin-7-one], the IC50 on B-Raf delta1-415 was below 100 nM; with HT-29 tumor cells (Homo sapiens, HT-29, 72 h) it was below 1000 nM.

Take `O=c1c(-c2c(F)cccc2Cl)cc2cnc(Nc3ccccc3)nc2n1OCc1cccnc1` [Compound 153, 6-(2-Chloro-6-fluorophenyl)-2-phenylamino-8-(pyrid-3-ylmethyl)oxy-pyrido[2,3-d]pyrimidin-7-one]: the IC50 is below 500 nM on B-Raf delta1-415 and below 1000 nM with HT-29 tumor cells (Homo sapiens, HT-29, 72 h).

On to `CNC(=O)c1cccc(Nc2ncc3cc(-c4c(Cl)cccc4Cl)c(=O)n(OC)c3n2)c1` [Compound 131, 6-(2,6-Dichlorophenyl)-8-methoxy-2-(3-methylaminocarbonylphenyl)-amino-pyrido[2,3-d]pyrimidin-7-one], for which the half-inhibitory concentration (IC50) is below 100 nM on B-Raf delta1-415 and below 1000 nM in the test on HT-29 tumor cells (Homo sapiens, HT-29, 72 h).

On to `O=c1c(-c2c(F)cccc2Cl)cc2cnc(Nc3ccc(N4CCOCC4)cc3)nc2n1OCC1CC1` [Compound 129], for which the IC50 on B-Raf delta1-415 is below 100 nM; in the test on HT-29 tumor cells (Homo sapiens, HT-29, 72 h), below 1000 nM.

In the case of `COn1c(=O)c(-c2c(Cl)cccc2Cl)cc2cnc(Nc3cccc(NS(C)(=O)=O)c3)nc21` [Compound 119, 6-(2,6-Dichlorophenyl)-8-methoxy-2-(3-methylsulfonylaminophenyl)-amino-pyrido[2,3-d]pyrimidin-7-one], the IC50 on B-Raf delta1-415 was below 100 nM; with HT-29 tumor cells (Homo sapiens, HT-29, 72 h), below 1000 nM.

Take `COn1c(=O)c(-c2c(Cl)cccc2Cl)cc2cnc(Nc3cc(C(=O)N(C)CCOC(=O)c4cccnc4)n(C)c3)nc21` [Compound 159]: the IC50 on B-Raf delta1-415 is below 500 nM; in the test on HT-29 tumor cells (Homo sapiens, HT-29, 72 h), below 1000 nM.

With `COn1c(=O)c(-c2c(Cl)cccc2Cl)cc2cnc(Nc3nc(C(=O)N(C)CCO)cs3)nc21` [Compound 138, 6-(2,6-Dichlorophenyl)-8-methoxy-2-(4-N-(2-hydroxyethyl)-N-methyl-aminocarbonyl-thiazol-2-yl)-amino-pyrido[2,3-d]pyrimidin-7-one], the values for the IC50 on B-Raf delta1-415 and in the test with HT-29 tumor cells were below 1000 nM and below 10000 nM, respectively.

`COn1c(=O)c(-c2c(Cl)cccc2Cl)cc2cnc(Nc3cccc(CN4CC[C@H](O)C4)c3)nc21` [Compound 181, 6-(2,6-Dichlorophenyl)-2-(3-(3-(S)-hydroxypyrrolidinomethyl)phenyl)-amino-8-methoxy-pyrido[2,3-d]pyrimidin-7-one]: the 50% inhibitory concentration (IC50) was below 500 nM on B-Raf delta1-415 and below 1000 nM in the test on HT-29 tumor cells (Homo sapiens, HT-29, 72 h).

Turning to `COn1c(=O)c(-c2c(Cl)cccc2Cl)cc2cnc(Nc3cc(C(=O)NC[C@@H](O)CO)n(C)c3)nc21` [Compound 117, 6-(2,6-Dichlorophenyl)-2-(5-(2-(R)-2,3-dihydroxyethylamino)carbonyl-1-methyl-pyrrol-3-yl)-amino-8-methoxy-pyrido[2,3-d]pyrimidin-7-one], the IC50 on B-Raf delta1-415 is below 100 nM; in the test with HT-29 tumor cells (Homo sapiens, HT-29, 72 h), below 10000 nM.

With `COn1c(=O)c(-c2c(Cl)cccc2Cl)cc2cnc(Nc3ccon3)nc21` [Compound 85, 6-(2,6-Dichlorophenyl)-2-(isoxazol-3-yl)-amino-8-methoxy-pyrido[2,3-d]pyrimidin-7-one], the half-maximal inhibitory concentration (IC50) at B-Raf delta1-415 was below 500 nM; in the test with HT-29 tumor cells (Homo sapiens, HT-29, 72 h) it was below 10000 nM.

Turning to `COn1c(=O)c(-c2c(Cl)cccc2Cl)cc2cnc(Nc3ccccc3F)nc21` [Compound 190, 6-(2,6-Dichlorophenyl)-2-(2-fluorophenyl)amino-8-methoxy-pyrido[2,3-d]pyrimidin-7-one], the IC50 was above 1000 nM at B-Raf delta1-415 and below 1000 nM in the test with HT-29 tumor cells (Homo sapiens, HT-29, 72 h).

Turning to `COc1cc(Nc2ncc3cc(-c4c(F)cccc4Cl)c(=O)n(OC)c3n2)ccc1N1CCNCC1` [Compound 214, 6-(2-Chloro-6-fluorophenyl)-8-methoxy-2-(3-methoxy-4-piperazinophenyl)-amino-pyrido[2,3-d]pyrimidin-7-one], the concentration for half-maximal inhibition (IC50) at B-Raf delta1-415 is below 100 nM; in the test with HT-29 tumor cells (Homo sapiens, HT-29, 72 h), below 1000 nM.

In the case of `CCOn1c(=O)c(-c2c(F)cccc2Cl)cc2cnc(Nc3ccc(N4CCOCC4)cc3)nc21` [Compound 128], the IC50 was below 100 nM on B-Raf delta1-415 and below 1000 nM with HT-29 tumor cells (Homo sapiens, HT-29, 72 h).

Consider `COn1c(=O)c(-c2c(Cl)cccc2Cl)cc2cnc(Nc3cc(C(=O)N4CCOCC4)n(C)c3)nc21` [Compound 137, 6-(2,6-Dichlorophenyl)-8-methoxy-2-(5-morpholinocarbonyl-1-methyl-pyrrol-3-yl)-amino-pyrido[2,3-d]pyrimidin-7-one], for which the 50% inhibitory concentration (IC50) at B-Raf delta1-415 was below 100 nM; in the test on HT-29 tumor cells (Homo sapiens, HT-29, 72 h), below 1000 nM.

`COn1c(=O)c(-c2c(Cl)cccc2Cl)cc2cnc(Nc3ccc(Cn4cncn4)cc3)nc21` [Compound 104, 6-(2,6-Dichlorophenyl)-8-methoxy-2-(4-(1,2,4-triazol-1-yl)methylphenyl)-amino-pyrido[2,3-d]pyrimidin-7-one]: the IC50 on B-Raf delta1-415 is below 500 nM; with HT-29 tumor cells (Homo sapiens, HT-29, 72 h), below 1000 nM.

`COn1c(=O)c(-c2c(Cl)cccc2Cl)cc2cnc(Nc3cccc(S(=O)(=O)NCCO)c3)nc21` [Compound 126, 6-(2,6-Dichlorophenyl)-2-(3-(2-hydroxyethyl)aminosulfonyl-phenyl)-amino-8-methoxy-pyrido[2,3-d]pyrimidin-7-one]: the IC50 on B-Raf delta1-415 was below 100 nM; in the test with HT-29 tumor cells (Homo sapiens, HT-29, 72 h), below 1000 nM.

Turning to `COn1c(=O)c(-c2c(Cl)cccc2Cl)cc2cnc(Nc3cccc(S(=O)(=O)N4CCOCC4)c3)nc21` [Compound 127, 6-(2,6-Dichlorophenyl)-2-(3-morpholinosulfonylphenyl)-amino-8-methoxy-pyrido[2,3-d]pyrimidin-7-one], the 50% inhibitory concentration (IC50) at B-Raf delta1-415 is below 500 nM; in the test with HT-29 tumor cells (Homo sapiens, HT-29, 72 h), below 1000 nM.
